T/C data for 13 molecules are collected here from PubChem BioAssay AID244 (DTP/NCI, 2004).

Values joined by “and” are separate entries in the source; they are usually repeats but may differ in a detail not shown here. Equal values may be shown once. Inconclusive results are not listed. *1 amine or outer side, *2 acyl side, *3 side chain or, on linkers, in order; H or OH if unused. Where a SMILES comes first, the peptide text is derived from it. Bridges are numbered along the chain shown (N, C = ends). Roman numbers before positions name the chains, in order. [ ]: non-standard residue; d: D form. Actinocin(9to1) = Cc1c2oc3c(C)ccc(C(=O)[*:1])c3nc-2c(C(=O)[*:2])c(N)c1=O; aThr = C[C@H](O)[C@H](N)C(=O)O; NMeV = CN[C@H](C(=O)O)C(C)C; Sar = CNCC(=O)O

This test deals with CD2F1 mice, Lymphoma 8 ip, survival T/C. Briefly: NCI In Vivo Anticancer Drug Screen. Data for tumor model Lymphoma 8 (intraperitoneal) in CD2F1 (CDF1) mice. Particulars: higher = longer survival. As to the method:
The antitumor activity of compounds was measured in mice bearing transplantable tumors. Survival or tumor size were measured and the results are expressed as the measurement made in the treated group (T) divided by the measurement made in the vehicle treated control group (C). The tumor model used in this assay is Lymphoma 8 (intraperitoneal) in CD2F1 (CDF1) mice

Where [1] appears, read: endpoint: survival time, mean or median, dose: 8.0 mg/kg/injection, schedule: Q01DX010 (ip), vehicle: saline.
Setting [2] is: endpoint: survival time, mean or median, dose: 16.0 mg/kg/injection, schedule: Q01DX010 (ip), vehicle: saline.

With `CNC(=O)CC(N)C(=O)O` (stereo not given), the T/C was 96 % of control and 102 % of control (endpoint: median survival time, dose: 75.0 mg/kg/injection, schedule: Q01DX005 (ip), vehicle: saline); 107 % of control and 113 % of control (endpoint: median survival time, dose: 150.0 mg/kg/injection, schedule: Q01DX005 (ip), vehicle: saline); 93 % of control and 113 % of control (endpoint: median survival time, dose: 300.0 mg/kg/injection, schedule: Q01DX005 (ip), vehicle: saline); 95 % of control and 114 % of control (endpoint: median survival time, dose: 600.0 mg/kg/injection, schedule: Q01DX005 (ip), vehicle: saline); 102 % of control (endpoint: median survival time, dose: 1200.0 mg/kg/injection, schedule: Q01DX005 (ip), vehicle: saline).
`NCC(=O)O`: the T/C was 86 % of control (endpoint: median survival time, dose: 187.5 mg/kg/injection, schedule: Q04HX003 (ip), vehicle: saline); 86 % of control (endpoint: median survival time, dose: 375.0 mg/kg/injection, schedule: Q04HX003 (ip), vehicle: saline); 81 % of control (endpoint: median survival time, dose: 750.0 mg/kg/injection, schedule: Q04HX003 (ip), vehicle: saline); 75 % of control (endpoint: median survival time, dose: 1500.0 mg/kg/injection, schedule: Q04HX003 (ip), vehicle: saline).
As to `O=c1[nH]cc(F)c(=O)[nH]1`, the T/C was 110 % of control (endpoint: median survival time, dose: 13.0 mg/kg/injection, schedule: Q04DX003 (ip), vehicle: saline); 118 % of control (endpoint: median survival time, dose: 21.8 mg/kg/injection, schedule: Q04DX003 (ip), vehicle: saline); 114 % of control (endpoint: median survival time, dose: 36.0 mg/kg/injection, schedule: Q04DX003 (ip), vehicle: saline); 62 % of control (endpoint: median survival time, dose: 100.0 mg/kg/injection, schedule: Q04DX003 (ip), vehicle: saline).
On to `c1ccc(CNc2ncnc3[nH]ncc23)cc1`, for which the T/C under setting [1] is 100 % of control; the T/C under setting [2] was 95 % of control; the T/C (endpoint: survival time, mean or median, dose: 32.0 mg/kg/injection, schedule: Q01DX010 (ip), vehicle: saline) was 95 % of control and 100 % of control; the T/C (endpoint: survival time, mean or median, dose: 64.0 mg/kg/injection, schedule: Q01DX010 (ip), vehicle: saline) was 90 % of control.
As to `CC(=O)Nc1c(Cl)cc2c(c1Cl)Cc1cc([N+](=O)[O-])ccc1-2`, the T/C (endpoint: survival time, mean or median, dose: 3.9 mg/kg/injection, schedule: Q01DX010 (ip), vehicle: saline) was 87 % of control.
On to `Nc1nc(=S)c2ncn(C3OC(CO)C(O)C3O)c2[nH]1` (stereo not given), for which the T/C runs as follows: (endpoint: survival time, mean or median, dose: 4.0 mg/kg/injection, schedule: Q01DX010 (ip), vehicle: saline) 150 % of control; under setting [1], 118 % of control; under setting [2], 86 % of control.
`NC(CS(N)(=O)=O)C(=O)O` (stereo not given): the T/C by setting is: (endpoint: median survival time, dose: 50.0 mg/kg/injection, schedule: Q01DX005 (ip), vehicle: saline) 92 % of control; (endpoint: median survival time, dose: 100.0 mg/kg/injection, schedule: Q01DX005 (ip), vehicle: saline) 92 % of control; (endpoint: median survival time, dose: 200.0 mg/kg/injection, schedule: Q01DX005 (ip), vehicle: saline) 96 % of control and 97 % of control; (endpoint: median survival time, dose: 400.0 mg/kg/injection, schedule: Q01DX005 (ip), vehicle: saline) 92 % of control and 94 % of control.
Take `S=c1nc[nH]c2nc[nH]c12`: the T/C runs as follows: (endpoint: median survival time, dose: 60.0 mg/kg/injection, schedule: Q01DX002 (ip), vehicle: saline) 96 % of control; (endpoint: median survival time, dose: 60.0 mg/kg/injection, schedule: Q04DX002 (ip), vehicle: saline) 107 % of control; (endpoint: median survival time, dose: 90.0 mg/kg/injection, schedule: Q01DX002 (ip), vehicle: saline) 93 % of control; (endpoint: median survival time, dose: 90.0 mg/kg/injection, schedule: Q04DX002 (ip), vehicle: saline) 107 % of control; (endpoint: median survival time, dose: 135.0 mg/kg/injection, schedule: Q01DX002 (ip), vehicle: saline) 103 % of control.
For the molecule `O=C1C=CC(=O)N1`, the T/C is 98 % of control and 109 % of control (endpoint: median survival time, dose: 0.25 mg/kg/injection, schedule: Q01DX009 (ip), vehicle: saline); 100 % of control and 102 % of control (endpoint: median survival time, dose: 0.5 mg/kg/injection, schedule: Q01DX009 (ip), vehicle: saline); 95 % of control and 102 % of control (endpoint: median survival time, dose: 1.0 mg/kg/injection, schedule: Q01DX009 (ip), vehicle: saline); 94 % of control and 95 % of control (endpoint: median survival time, dose: 2.0 mg/kg/injection, schedule: Q01DX009 (ip), vehicle: saline).
Consider `Cc1c2oc3c(C)ccc(C(=O)N[C@@H]4C(=O)N[C@H](C(C)C)C(=O)N5CCC[C@H]5C(=O)N(C)CC(=O)N(C)[C@@H](C(C)C)C(=O)O[C@H]4C)c3nc-2c(C(=O)N[C@@H]2C(=O)N[C@H](C(C)C)C(=O)N3CCC[C@H]3C(=O)N(C)CC(=O)N(C)[C@@H](C(C)C)C(=O)O[C@H]2C)c(N)c1=O` (I: [aThr][dV]P[Sar][NMeV] / II: [aThr][dV]P[Sar][NMeV]; ester I:1-I:C, II:1-II:C; linker I:N-II:N via Actinocin(9to1)), for which the T/C by setting is: (endpoint: median survival time, dose: 0.05 mg/kg/injection, schedule: Q01DX002 (ip), vehicle: saline) 103 % of control; (endpoint: median survival time, dose: 0.05 mg/kg/injection, schedule: Q04DX002 (ip), vehicle: saline) 100 % of control; (endpoint: median survival time, dose: 0.1 mg/kg/injection, schedule: Q04DX002 (ip), vehicle: saline) 92 % of control; (endpoint: median survival time, dose: 0.2 mg/kg/injection, schedule: Q01DX002 (ip), vehicle: saline) 106 % of control; (endpoint: median survival time, dose: 0.2 mg/kg/injection, schedule: Q04DX002 (ip), vehicle: saline) 100 % of control.
Turning to `CC[C@]1(O)C[C@H]2CN(CCc3c([nH]c4ccccc34)[C@@](C(=O)OC)(c3cc4c(cc3OC)N(C=O)[C@H]3[C@@](O)(C(=O)OC)[C@H](OC(C)=O)[C@]5(CC)C=CCN6CC[C@]43[C@@H]65)C2)C1`, the T/C by setting is: (endpoint: median survival time, dose: 0.03 mg/kg/injection, schedule: Q01DX005 (ip), vehicle: saline) 96 % of control and 104 % of control and 109 % of control; (endpoint: median survival time, dose: 0.06 mg/kg/injection, schedule: Q01DX005 (ip), vehicle: saline) 100 % of control and 103 % of control and 105 % of control; (endpoint: median survival time, dose: 0.12 mg/kg/injection, schedule: Q01DX005 (ip), vehicle: saline) 115 % of control and 118 % of control; (endpoint: median survival time, dose: 0.13 mg/kg/injection, schedule: Q01DX005 (ip), vehicle: saline) 116 % of control.
Regarding `NC(C/[N+]([O-])=N/O)C(=O)O` (stereo not given), the T/C was 119 % of control (endpoint: median survival time, dose: 12.5 mg/kg/injection, schedule: Q01DX009 (ip), vehicle: other); 113 % of control (endpoint: median survival time, dose: 12.5 mg/kg/injection, schedule: Q01DX009 (ip), vehicle: saline + alcohol); 116 % of control (endpoint: median survival time, dose: 12.5 mg/kg/injection, schedule: Q01DX009 (ip), vehicle: water); 174 % of control (endpoint: median survival time, dose: 13.2 mg/kg/injection, schedule: Q01DX010 (ip), vehicle: alkali diluted with saline); 197 % of control (endpoint: median survival time, dose: 19.8 mg/kg/injection, schedule: Q01DX010 (ip), vehicle: alkali diluted with saline); 120 % of control (endpoint: median survival time, dose: 25.0 mg/kg/injection, schedule: Q01DX009 (ip), vehicle: other). Further, the T/C reads like this: (endpoint: median survival time, dose: 25.0 mg/kg/injection, schedule: Q01DX009 (ip), vehicle: saline + alcohol) 116 % of control; (endpoint: median survival time, dose: 25.0 mg/kg/injection, schedule: Q01DX009 (ip), vehicle: water) 122 % of control; (endpoint: median survival time, dose: 29.6 mg/kg/injection, schedule: Q01DX010 (ip), vehicle: alkali diluted with saline) 211 % of control; (endpoint: median survival time, dose: 44.4 mg/kg/injection, schedule: Q01DX010 (ip), vehicle: alkali diluted with saline) 180 % of control; (endpoint: median survival time, dose: 50.0 mg/kg/injection, schedule: Q01DX009 (ip), vehicle: other) 98 % of control; (endpoint: median survival time, dose: 50.0 mg/kg/injection, schedule: Q01DX009 (ip), vehicle: water) 150 % of control. Besides, the T/C is, setting by setting: (endpoint: median survival time, dose: 66.7 mg/kg/injection, schedule: Q01DX010 (ip), vehicle: alkali diluted with saline) 121 % of control; (endpoint: median survival time, dose: 100.0 mg/kg/injection, schedule: Q01DX009 (ip), vehicle: other) 92 % of control; (endpoint: median survival time, dose: 100.0 mg/kg/injection, schedule: Q01DX009 (ip), vehicle: saline + alcohol) 103 % of control; (endpoint: median survival time, dose: 100.0 mg/kg/injection, schedule: Q01DX009 (ip), vehicle: water) 91 % of control; (endpoint: median survival time, dose: 100.0 mg/kg/injection, schedule: Q01DX010 (ip), vehicle: alkali diluted with saline) 109 % of control.
With `NC(=O)c1[nH]nc(C2OC(CO)C(O)C2O)c1O` (stereo not given), the T/C was 103 % of control (endpoint: median survival time, dose: 2.0 mg/kg/injection, schedule: Q04DX003 (ip), vehicle: saline); 91 % of control (endpoint: median survival time, dose: 4.0 mg/kg/injection, schedule: Q04DX003 (ip), vehicle: saline); 123 % of control (endpoint: median survival time, dose: 8.0 mg/kg/injection, schedule: Q04DX003 (ip), vehicle: saline); 75 % of control (endpoint: median survival time, dose: 16.0 mg/kg/injection, schedule: Q04DX003 (ip), vehicle: saline); 53 % of control (endpoint: median survival time, dose: 32.0 mg/kg/injection, schedule: Q04DX003 (ip), vehicle: saline).
